# Values quoted from earlier work in patent US8278268B2, “Combination therapy comprising glucose reabsorption inhibitors and PPAR modulators” (Ortho-McNeil Pharmaceutical, Inc., priority 2001, dated 2012).
# What was measured:
# [1] = test system: Na^+-glucose co-transporters located in chorionic membrane of the intestine and the kidney; details: cited from earlier work
# [2] = subcutaneous daily administration; cited from earlier work
# SGLT in the kidney = details: cited from earlier work
# SGLT-2 in the kidney = target: T1, SGLT-2 in the kidney (Homo sapiens, UniProt P31639); details: compared with T-1095; cited from earlier work
# T1 sequence (P31639 1-672): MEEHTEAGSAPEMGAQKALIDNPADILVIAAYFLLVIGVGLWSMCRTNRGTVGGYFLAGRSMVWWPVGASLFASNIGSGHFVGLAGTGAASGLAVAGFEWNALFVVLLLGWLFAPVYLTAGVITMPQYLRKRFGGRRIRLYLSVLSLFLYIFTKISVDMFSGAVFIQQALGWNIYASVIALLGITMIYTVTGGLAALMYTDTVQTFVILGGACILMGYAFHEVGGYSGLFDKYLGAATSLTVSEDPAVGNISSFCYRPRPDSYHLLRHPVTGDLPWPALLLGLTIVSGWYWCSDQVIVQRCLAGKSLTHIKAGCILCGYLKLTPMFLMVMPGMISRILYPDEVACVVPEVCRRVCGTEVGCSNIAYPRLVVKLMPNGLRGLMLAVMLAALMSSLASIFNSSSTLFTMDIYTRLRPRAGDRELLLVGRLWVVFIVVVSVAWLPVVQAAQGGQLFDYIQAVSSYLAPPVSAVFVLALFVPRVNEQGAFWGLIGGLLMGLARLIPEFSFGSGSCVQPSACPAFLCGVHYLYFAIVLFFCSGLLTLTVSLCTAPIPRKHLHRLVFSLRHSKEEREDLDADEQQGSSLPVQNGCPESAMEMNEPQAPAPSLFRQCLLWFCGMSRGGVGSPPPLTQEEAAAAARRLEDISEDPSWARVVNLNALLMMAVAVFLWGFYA
smiles,measurement,setting,value
O=C(CCc1ccc(O)cc1)c1c(O)cc(O)cc1O[C@@H]1O[C@H](CO)[C@@H](O)[C@H](O)[C@H]1O [phlorizin],inhibition of Na+-glucose co-transporters,[1],inhibits Na^+-glucose co-transporters
same,plasma glucose level,[2],the glucose level in a plasma is controlled at a normal level for a long time
Cc1cc(O)c(C(=O)CCc2ccc3occc3c2)c(OC2OC(CO)C(O)C(O)C2O)c1 (stereo not shown) [T-1095A],inhibition of SGLT in the kidney,SGLT in the kidney,selective and potent inhibitor of SGLT in the kidney
same,inhibition of SGLT-2 in the kidney,SGLT-2 in the kidney,also a better substrate for the inhibition of SGLT-2 in the kidney
